Measurements as given in ChEMBL document CHEMBL1201862, “PubChem BioAssay data set” (2004).
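48-hour exposure; five concentrations; linearly interpolated endpoints. The concentration for 50% growth inhibition is given as GI50.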 The source made the active and inactive calls. No stated cut-off is given here; in the data, active = GI50 up to about 1.1 µM and inactive = higher.

What was measured:
Experiment in all cases: NCI anticancer screen, dose series, 48 h
[1] = tested on: A498
[2] = tested on: HL-60
[3] = tested on: HOP-62
[4] = tested on: Hs-578T
[5] = tested on: K562
[6] = tested on: MDA-MB-231
[7] = tested on: MDA-MB-435
[8] = tested on: MDA-N
[9] = tested on: NCI-H226
[10] = tested on: OVCAR-3
[11] = tested on: OVCAR-5
[12] = tested on: RXF 393
[13] = tested on: SK-MEL-5
[14] = tested on: SK-OV-3
[15] = tested on: SN12C
[16] = tested on: SNB-19
[17] = tested on: SW-620
[18] = tested on: HCC 2998
[19] = tested on: SF-539

| SMILES | GI50 [1] | GI50 [2] | GI50 [3] | GI50 [4] | GI50 [5] | GI50 [6] | GI50 [7] | GI50 [8] | GI50 [9] | GI50 [10] | GI50 [11] | GI50 [12] | GI50 [13] | GI50 [14] | GI50 [15] | GI50 [16] | GI50 [17] | GI50 [18] | GI50 [19] |
| --- | --- | --- | --- | --- | --- | --- | --- | --- | --- | --- | --- | --- | --- | --- | --- | --- | --- | --- | --- |
| Nc1nc(SCC(=O)c2ccc(Br)cc2)c2nc[nH]c2n1 | 51.6 µM (inactive) | 25.3 µM (inactive) | 44.9 µM (inactive) | 21.6 µM (inactive) | 18.1 µM (inactive) | 52.1 µM (inactive) | 35.2 µM (inactive) | 34.8 µM (inactive) | 27.1 µM (inactive) | 32.3 µM (inactive) | 47.1 µM (inactive) | 41.9 µM (inactive) | 20 µM (inactive) | 34.5 µM (inactive) | 34.4 µM (inactive) | > 100 µM (inactive) | 46.6 µM (inactive) | – | – |
| O=C(Cn1c2ccc(Br)cc2c2nc3ccccc3nc21)NNC(=S)NC1CCCCC1 | 16.7 µM (inactive) | – | 13.6 µM (inactive) | 24.5 µM (inactive) | 13.3 µM (inactive) | 15.8 µM (inactive) | 13.8 µM (inactive) | 16.8 µM (inactive) | 15.4 µM (inactive) | 10.8 µM (inactive) | 19.5 µM (inactive) | 6.89 µM (inactive) | 14.2 µM (inactive) | 21.7 µM (inactive) | 21.3 µM (inactive) | 13.3 µM (inactive) | 15.8 µM (inactive) | 17.6 µM (inactive) | – |
| O=C1Nc2ccccc2/C1=N/N1C(=O)/C(=C/c2ccccc2S)N=C1c1ccccc1 | > 100 µM (inactive) | 40.9 µM (inactive) | > 100 µM (inactive) | > 100 µM (inactive) | 27.9 µM (inactive) | > 100 µM (inactive) | 42.3 µM (inactive) | 82.4 µM (inactive) | – | 33.4 µM (inactive) | > 100 µM (inactive) | 68.9 µM (inactive) | 81.8 µM (inactive) | > 100 µM (inactive) | > 100 µM (inactive) | > 100 µM (inactive) | 71.1 µM (inactive) | > 100 µM (inactive) | > 100 µM (inactive) |
| COc1ccc2c(c1C)C(=O)C(O)(CC=C(C)C)O2 (centres undefined) | > 100 µM (inactive) | > 100 µM (inactive) | > 100 µM (inactive) | > 100 µM (inactive) | > 100 µM (inactive) | > 100 µM (inactive) | > 100 µM (inactive) | > 100 µM (inactive) | > 100 µM (inactive) | > 100 µM (inactive) | > 100 µM (inactive) | – | > 100 µM (inactive) | > 100 µM (inactive) | > 100 µM (inactive) | > 100 µM (inactive) | > 100 µM (inactive) | > 100 µM (inactive) | > 100 µM (inactive) |
| CC[N+](C)(CC)CCC(O)(c1ccccc1)c1ccccc1 | > 100 µM (inactive) | > 100 µM (inactive) | > 100 µM (inactive) | > 100 µM (inactive) | > 100 µM (inactive) | > 100 µM (inactive) | > 100 µM (inactive) | > 100 µM (inactive) | > 100 µM (inactive) | > 100 µM (inactive) | > 100 µM (inactive) | > 100 µM (inactive) | > 100 µM (inactive) | > 100 µM (inactive) | > 100 µM (inactive) | > 100 µM (inactive) | > 100 µM (inactive) | > 100 µM (inactive) | – |
| CCOC(=O)c1nc2ccccc2nc1NCc1ccc(Cl)cc1Cl | > 100 µM (inactive) | – | > 100 µM (inactive) | 65.6 µM (inactive) | > 100 µM (inactive) | > 100 µM (inactive) | 97.9 µM (inactive) | 96.8 µM (inactive) | > 100 µM (inactive) | > 100 µM (inactive) | > 100 µM (inactive) | > 100 µM (inactive) | > 100 µM (inactive) | > 100 µM (inactive) | – | > 100 µM (inactive) | > 100 µM (inactive) | – | > 100 µM (inactive) |
| O=C1Nc2ccccc2/C1=N/NC(=S)NCc1ccccn1 | 2.25 µM (inactive) | < 0.01 µM (active) | 0.483 µM (active) | 6.14 µM (inactive) | < 0.01 µM (active) | 0.0721 µM (active) | 0.931 µM (active) | 0.975 µM (active) | 0.604 µM (active) | < 0.01 µM (active) | 10.5 µM (inactive) | – | 0.551 µM (active) | 1.12 µM (inactive) | 1.27 µM (inactive) | 0.678 µM (active) | 0.126 µM (active) | 0.975 µM (active) | 0.366 µM (active) |
| C=CCN1C(=O)/C(=C\c2cc(C(C)(C)C)c(O)c(C(C)(C)C)c2)NC1=S | 25.2 µM (inactive) | 0.239 µM (active) | 20.9 µM (inactive) | 48.2 µM (inactive) | 19.9 µM (inactive) | 15.9 µM (inactive) | 24 µM (inactive) | 27.4 µM (inactive) | 29.3 µM (inactive) | 12.1 µM (inactive) | 31.3 µM (inactive) | – | 15.9 µM (inactive) | 34.1 µM (inactive) | 23.1 µM (inactive) | 41.9 µM (inactive) | 20.6 µM (inactive) | – | 39.5 µM (inactive) |
